In article PMC6981454, “Promising 2,6,9-Trisubstituted Purine Derivatives for Anticancer Compounds: Synthesis, 3D-QSAR, and Preliminary Biological Assays” (International Journal of Molecular Sciences, 2019):

What was measured:
HL-60 cells [1] = assay: Annexin-V FITC/PI apoptosis assay by flow cytometry; assay type: cell-based, human; details: for Q2 (late apoptosis) cells / Q3 (viable) cells: 24 h
Protocol: To assess an unequivocal identification of apoptosis, annexin-V FITC is commonly combined with PI to understand if cells are viable, apoptotic, or necrotic through differences in plasma membrane integrity and permeability. To better understand the ability of compound 7h (the lowest IC50 values and high SI) to induce cell death, we performed the annexin-V FITC/PI assay. HL-60 cells were treated with 7h at the dose corresponding to 5 and 50 μM by 24 h, then harvested and stained with annexin-V FITC and PI (Figure 8). […] In addition, Figure 8 illustrates a discrete increase in the apoptosis (Q2 and Q4) from 5 to 50 µM, as well as an increase in necrosis at the concentration of 50 µM.
HL60 cells were seeded into a 12-well plate (5 × 10^5 per well) and incubated in RPMI 1640 […] for 24 h at 37 °C—then, replaced with fresh medium containing the tested compound 7h at indicated concentrations for another 24 h. The cells were collected and then used the Annexin-V/PI Alexa Fluor 488 apoptosis kit (Invitrogen, Carlsbad, CA, USA) according to the instruction of manufacturer to detect the apoptosis cells, which were analyzed by flow cytometry (BD; FACScanto II, Mountain View, CA) and data were processed using FCS Express v6 software. Two independent biological replicates were performed.

HL-60 cells [2] = assay: Cell cycle analysis, PI flow cytometry; assay type: cell-based, human; details: HL-60, 25 µM, 48 h
Protocol: Considering that apoptotic mechanisms are associated with the G1/S boundary cell cycle arrest and the inhibition of cell cycle progression is an important factor to control cancer cell growth, we were interested in investigating whether 7h affects the cell cycle of HL-60 cells. We analyzed the cell cycle distribution of the cells stained with PI using flow cytometry. […] This effect is in agreement with apoptotic mechanisms.
HL60 cells were plated in 6-well plates at a density of 2.0 × 10^5 cells/1.5 mL/well, and grown overnight at 37 °C in a 5% CO2 humidified atmosphere. Cells were treated with compounds 7h at 25 µM concentration or 1% DMSO (controls) for 48 h. Aliquots of cells were collected, pelleted, washed, and fixed with ethanol (70% v/v) for at least 30 min at 4 °C. Cells were twice resuspended in PBS, and after centrifugation and elimination of the supernatant, resuspended in a solution containing PBS, PI ([…], Invitrogen), RNase A (20 mg/mL, Invitrogen). After a final incubation for 1 h in the dark at 37 °C; PI signal was measured using a FACS canto II flowcytometer (BD; Mountain View, CA) with a 488 nm excitation laser, captured, and FACS Diva was used as the acquisition software. The percentage of cells in each phase was analyzed using the FCS Express v6 software. Three independent biological replicates were performed.

**Q.** How did the “Q2 (late apoptosis) cells” value (HL-60 cells [1]; HL-60, 5 μM) turn out when `O=[N+]([O-])c1ccc(N2CCN(c3nc(Cl)nc4c3ncn4C3CCCC3)CC2)cc1` [7h, 2-Chloro-9-cyclopentyl-6-(4-(4-nitrophenyl)piperazin-1-yl)-9H-purine] was run?
**A.** 36.5%

**Q.** And the “Q3 (viable) cells” value (HL-60 cells [1]; HL-60, 5 μM, 5 µM)?
**A.** ~55%

**Q.** And the “Q2 (late apoptosis) cells” value (HL-60 cells [1]; HL-60, 50 μM)?
**A.** 37.7%

**Q.** And the “Q3 (viable) cells” value (HL-60 cells [1]; HL-60, 50 μM, 50 µM)?
**A.** 38%

**Q.** What about the viability at 5 µM (HL-60 cells [1]; Homo sapiens, HL-60, 24 h, HL-60, 5 μM, read-out: Q3 (viable) cells) of the same compound?
**A.** 55.2%

**Q.** And the viability at 50 µM (HL-60 cells [1]; Homo sapiens, HL-60, 24 h, HL-60, 50 μM, read-out: Q3 (viable) cells)?
**A.** 37.8%

**Q.** What about the “effect on cell cycle distribution” value (HL-60 cells [2]) of the same compound?
**A.** accumulation of cells in S cell cycle phase
